Source: publication PMC10914731, “Homo-BacPROTAC-induced degradation of ClpC1 as a strategy against drug-resistant mycobacteria” (Nature Communications, 2024)
Values joined by “and” are separate entries in the source; they are usually repeats but may differ in a detail not shown here. Identical values can stand only once. Like-named read-outs stand apart in the source and are kept apart here. *1 amine or outer side, *2 acyl side, *3 side chain or, on linkers, in order; H or OH if unused. Where a SMILES comes first, the peptide text is derived from it. [ ]: non-standard residue; d: D form. X1 = C#CCn1cc(C[C@H](N[*:1])C(=O)[*:2])c2ccccc21; NMeLeu(5-OH,4R) = CN[C@@H](C[C@@H](C)CO)C(=O)O; Phe(βR-OMe) = CO[C@H](c1ccccc1)[C@H](N)C(=O)O; NMeL = CN[C@@H](CC(C)C)C(=O)O

How the values were obtained:
[1] = system: Mtb H37Rv in THP-1 macrophages; assay: Intracellular MIC assay in THP-1 macrophages; format: cell-based, Mycobacterium tuberculosis; set-up: Emax: unit not given here
[2] = system: non-replicating cells of Mtb H37Rv; format: cell-based, Mycobacterium tuberculosis; conditions: three replicate columns
in vivo = format: in vivo, BALB/cAnNCrl mice; conditions: iv bolus
Experimental: The in-life experimental procedures were conducted in strict compliance with German and European animal welfare legislation in an AAALAC-accredited facility. Male BALB/cAnNCrl mice (Charles River Laboratories Research Models and Services, 97633 Sulzfeld, Germany) were used. Animals were 9 weeks old at dosing with a body weight of 21.6–24.3 g. Animals were delivered free of pathogens according to FELASA recommendations with a health certificate provided by the breeder. Upon receipt, the state of health and sex was checked. Animals acclimatized for at least 5 days before the commencement of the in-life phase. During acclimation, animals were group-housed in individually ventilated cages, on birch wood granulate bedding with species-specific enrichment (nesting material, mouse igloo, gnawing wood). During experimental conduct, animals were housed in conventional cages with elevated grid floors. Grid floor was used to avoid contamination with test item material excreted via urine and feces and subsequent reuptake during fur grooming. No bedding and enrichment were provided except a cage divider, which can be used as a shelter. Animals always had unlimited access to food and water and received a pelleted, total pathogen-free maintenance diet and tap drinking water, sterilized by filter.
In case of incomplete dissolution, the formulation was filtered at 40 °C (non-pyrogenic sterile-R filter, 0.2 µm). All formulations were stirred warm until administration. Actual test item content was determined bioanalytically.
Male BALB/cAnNCrl mice (n = 3 per test item and administration route) received a bolus dose of the formulated test item(s) (1 mg/kg iv, 30 mg/kg po) at t = 0 h, and whole blood samples were collected subsequently (35 µl at 0.1 (iv) / 0.25 (po), 0.5, 1, 2, 4, 6 h; 600 µl at sacrifice after 24 h). Animals were euthanized by exsanguination in deep isoflurane anesthesia. Whole blood samples were immediately stored on ice at about 4 °C. Plasma was separated by centrifugation at approximately 10,000 × g for 5 m at +4 °C. Centrifugation of each blood sample was started within 10 m after collection. A single aliquot of at least 15 µL of plasma was prepared and immediately stored at −20 ± 5 °C.
Sample proteins were precipitated with ACN (1 + 12, v/v) containing internal standard, and supernatants analyzed by quantitative UPLC-MS/MS: Phenomenex Luna Omega C18, 2.1 × 50 mm, 1.6 µm, 40 °C, gradient between 10% - 90% ACN with 0.1% formic acid. LogD determination: Lipophilicity of the test items, expressed as chromLogD7.5, was assessed by measuring their chromatographic retention times on C18-material. The chromatographic retention versus logD7.5 values of a series of thirteen n-alkan-2-ones (2-butanone – 2-hexadecanone) served as lipophilicity calibration.

[3] = male, BALB/cAnNCrl, mouse, in vivo, iv, 1.062 umol/kg, individual animals 1-3

## C#CCn1cc(C[C@@H]2NC(=O)[C@H](C(C)C)NC(=O)[C@H](CC(C)C)N(C)C(=O)[C@H](C(C)C)NC(=O)[C@H]([C@H](OC)c3ccccc3)NC(=O)[C@H](C)NC(=O)[C@H](C[C@@H](C)CO)N(C)C2=O)c2ccccc21 [Compound 5] (cyclo(A[Phe(βR-OMe)]V[NMeL]V[X1][NMeLeu(5-OH,4R)]))
[1]
  Emax: 1.14
[1]; 0.195µM, Day 4, well replicates
  intracellular viable mycobacteria: 5.51 log10 cfu/ml
[1]; 0.195µM, Day 7, well replicates
  intracellular viable mycobacteria: 5.68 log10 cfu/ml
[1]; 0.781µM, Day 4, well replicates
  intracellular viable mycobacteria: 4.46 log10 cfu/ml and 4.51 log10 cfu/ml
[1]; 3.125µM, Day 4, well replicates
  intracellular viable mycobacteria: 4.19 log10 cfu/ml and 4.2 log10 cfu/ml
[1]; 3.125µM, Day 7, well replicates
  intracellular viable mycobacteria: 4.96 log10 cfu/ml
[2]; Conc. 0.0488281 µM
  Supplementary Figure 2 dose-response value, starvation-induced non-replicating H37Rv cells: 103.448 and 95.0508 and 97.0505
[2]; Conc. 0.0976562 µM
  Supplementary Figure 2 dose-response value, starvation-induced non-replicating H37Rv cells: 90.7405 and 81.0762 and 83.793
[2]; Conc. 0.195312 µM
  Supplementary Figure 2 dose-response value, starvation-induced non-replicating H37Rv cells: 92.9713 and 85.6175 and 87.7368
[2]; Conc. 0.390625 µM
  Supplementary Figure 2 dose-response value, starvation-induced non-replicating H37Rv cells: 86.478 and 81.4188 and 83.0521
[2]; Conc. 0.78125 µM
  Supplementary Figure 2 dose-response value, starvation-induced non-replicating H37Rv cells: 85.259 and 79.8652 and 81.4825
[2]; Conc. 1.5625 µM
  Supplementary Figure 2 dose-response value, starvation-induced non-replicating H37Rv cells: 86.0796 and 80.7177 and 79.658
[2]; Conc. 3.125 µM
  Supplementary Figure 2 dose-response value, starvation-induced non-replicating H37Rv cells: 84.8208 and 76.8536 and 80.407
[2]; Conc. 6.25 µM
  Supplementary Figure 2 dose-response value, starvation-induced non-replicating H37Rv cells: 82.0881 and 78.7498 and 78.7099
[2]; Conc. 25 µM
  Supplementary Figure 2 dose-response value, starvation-induced non-replicating H37Rv cells: 68.1135 and 65.0382 and 65.6038
[2]; Conc. 50 µM
  Supplementary Figure 2 dose-response value, starvation-induced non-replicating H37Rv cells: 63.9387 and 63.1101 and 60.943
[2]; Conc. 100 µM
  Supplementary Figure 2 dose-response value, starvation-induced non-replicating H37Rv cells: 61.9787 and 54.8959 and 58.7122
In vivo; individual animals 1-3
  AUC0-inf/Dose: 180 h nM/(nmol kg-1) and 169 h nM/(nmol kg-1) and 158 h nM/(nmol kg-1)
  AUC0-t/Dose: 177 h nM/(nmol kg-1) and 161 h nM/(nmol kg-1) and 154 h nM/(nmol kg-1)
  CL: 98.5 mL/min/kg and 106 mL/min/kg
  CL PL QH: 103.0% and 109.0% and 117.0%
  Cmax/Dose: 488 nM/(nmol kg-1) and 361 nM/(nmol kg-1) and 396 nM/(nmol kg-1)
  MRT: 54 min and 42 min
  Plasma concentration 0.1 h: 518 nM and 384 nM and 421 nM
  Plasma concentration 0.5 h: 85.1 nM and 88.1 nM and 71.5 nM
  Plasma concentration 1 h: 33.6 nM and 37.9 nM and 32.6 nM
  Plasma concentration 2 h: 12.3 nM and 14.2 nM and 13.4 nM
  Plasma concentration 4 h: 2.7 nM and 4.8 nM and 2.9 nM
  Vss: 5.6 L/kg and 4.6 L/kg
  t1/2: 78 min
In vivo; mice, Mean
  AUC0-inf/Dose: 169 h nM/(nmol kg-1)
  AUC0-t/Dose: 164 h nM/(nmol kg-1)
  CL PL QH: 110.0%
  Cmax/Dose: 415 nM/(nmol kg-1)
  Plasma concentration 0.1 h: 441 nM
  Plasma concentration 0.5 h: 81.6 nM
  Plasma concentration 1 h: 34.7 nM
  Plasma concentration 2 h: 13.3 nM
  Plasma concentration 4 h: 3.5 nM
In vivo; [3]
  clearance: 92.3 mL/min/kg
  half-life: 54 min
In vivo; male, BALB/cAnNCrl, mouse, in vivo, iv, 1.062 umol/kg, individual animals 1-3, read-out: MRT
  MRT: 36 min
In vivo; male, BALB/cAnNCrl, mouse, in vivo, iv, 1.062 umol/kg, individual animals 1-3, read-out: Vss
  Vd: 3.5 L/kg
In vivo; male, BALB/cAnNCrl, mouse, in vivo, iv, 1.062 umol/kg, mice, Mean
  clearance: 98.8 mL/min/kg
